We go through 11 compounds from patent publication US6384070B2, “Indole derivatives useful as endothelin receptor antagonists” (Pfizer Inc., priority 1996, dated 2002).

Data set [1] concerns the target T1, cloned human ETA receptor (Homo sapiens, UniProt P25101).
T1 sequence (P25101 21-427): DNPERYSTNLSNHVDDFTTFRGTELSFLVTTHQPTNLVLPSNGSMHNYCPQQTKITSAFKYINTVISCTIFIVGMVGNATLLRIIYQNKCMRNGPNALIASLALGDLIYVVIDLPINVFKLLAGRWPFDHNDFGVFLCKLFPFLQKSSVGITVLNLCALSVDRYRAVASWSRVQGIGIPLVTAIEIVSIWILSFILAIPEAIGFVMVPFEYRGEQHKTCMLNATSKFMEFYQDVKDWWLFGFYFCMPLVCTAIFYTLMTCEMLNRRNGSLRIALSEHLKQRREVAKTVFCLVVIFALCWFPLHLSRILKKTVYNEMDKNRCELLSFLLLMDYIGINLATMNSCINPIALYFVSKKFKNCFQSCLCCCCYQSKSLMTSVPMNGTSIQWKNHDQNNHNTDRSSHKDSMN
Description: Test A binding assay: competition with 125I-ET-1, binding to ETA receptors. Conditions: [125I]Tyr13 ET-1 displacement, 37° C., 2 hours. How it is done: Competition between test compounds and ^125I-ET-1 binding to human endothelin receptors is determined as follows.
25 ul of a 30 pM solution of [^125I]Tyr^13 ET-1 (specific activity 2,200 Ci/mM) is mixed with 25 μl samples of test compound (final concentrations in the range 0.1 nM-50.000 nM). 200 μl of a solution containing cloned human ETA receptor (0.75 pmoles receptor protein/ml). 50 mM Tris, 0.5 mM CaCl2, 0.1% human serum albumen. 0.1% bacitracin. 0.05% Tween 20, pH 7.4 is added. The solution is mixed at 37° C. for 2 hours. After the incubation, the unbound ligand is separated from receptor bound ligand by filtration with a Brandel cell harvester, followed by three washes of buffer. Filter papers are counted for radioactivity, and the IC50 (the concentration of test compound at which 50% of the radio-labelled compound is unbound) determined for the concentration range tested.

The test system of data set [2] is neointimal formation. Conditions: S. Douglas et al. Circ Res, 75, 1994; cited from earlier work.

In general, IC50 refers to the concentration at which inhibition is half-maximal. As a reminder, the melting point is the temperature, or range, at which the solid turns liquid.

Turning to `COc1cc(C)ccc1S(=O)(=O)NC(=O)C(c1ccc2c(c1)OCO2)c1cn(C)c2cc(C(=O)O)ccc12` (centres unmarked) [Example 17, 3-{1-(1,3-benzodioxol-5-yl)-2-[(2-methoxy-4-methylphenyl)sulfonamido]-2-oxoethyl}-1-methyl-1H-6-indolecarboxylic acid], in data set [1], the IC50 was less than 500 nM.

With `COc1cc(C)ccc1S(=O)(=O)NC(=O)C(c1ccc2c(c1)OCO2)c1cn(C)c2cc(CO)ccc12` (centres unmarked) [Example 65, 3-{1-(1,3-Benzodioxol-5-yl)-2-[(2-methoxy-4-methylphenyl)sulfonamido]-2-oxoethyl}-6-(hydroxymethyl)-1-methyl-1H-indole], the concentration for half-maximal inhibition (IC50) in data set [1] was less than 500 nM.

`Cn1cc(C(C(=O)O)c2ccc3c(c2)OCO3)c2cc(Br)ccc21` (centres unmarked) [Example 68, 2-(1,3-Benzodioxol-5-yl)-2-(5-bromo-1-methyl-1H-3-indolyl)acetic acid] registered a melting point of 191 to 193 °C.

`COc1cc(C)ccc1S(=O)(=O)NC(=O)C(c1ccc2c(c1)OCO2)c1cn(C)c2ccc(Br)cc12` (centres unmarked) [Example 79, 3-{1-(1,3-Benzodioxol-5-yl)-2-[(2-methoxy-4-methylphenyl)sulfonamido]-2-oxoethyl}-5-bromo-1-methyl-1H-indole] gave a melting point of 145 to 150 °C.

Compound `COc1cc(C)ccc1S(=O)(=O)NC(=O)C(c1ccc2c(c1)OCO2)c1cn(C)c2cc(F)ccc12` (centres unmarked) [Example 83] had a 50% inhibitory concentration (IC50) in data set [1] of less than 500 nM.

For the compound `COc1cc(C)ccc1S(=O)(=O)NC(=O)C(c1ccc2c(c1)OCO2)c1cn(C)c2cc(Br)ccc12` (centres unmarked) [Example 85, 3-{1-(1,3-benzodioxol-5-yl)-2-[(2-methoxy-4-methylphenyl)sulfonamido]-2-oxoethyl}-6-bromo-1-methyl-1H-indole], the melting point is 145 to 150 °C (dec.).

Regarding `COc1cc(C)ccc1S(=O)(=O)NC(=O)C(c1cc(OC)c2c(c1)OCO2)c1cn(C)c2cc(Br)ccc12` (centres unmarked) [Example 92, 6-Bromo-3-{1-(7-methoxy-1,3-benzodioxol-5-yl)-2-[(2-methoxy-4-methylphenyl)sulfonamido]-2-oxoethyl}-1-methyl-1H-indole], the melting point was 235 °C (dec.).

As for `Cc1ccc(S(=O)(=O)NC(=O)C(c2cc3c(cc2Cl)OCO3)c2cn(C)c3cc(CO)ccc23)cc1` (centres unmarked) [Example 99, 3-{1-(6-Chloro-1,3-benzodioxol-5-yl)-2-[(4-methylphenyl)sulfonamido]-2-oxoethyl}-6-(hydroxymethyl)-1-methyl-1H-indole], the melting point fell in the range of 207 to 209 °C.

In data set [1], `COc1cc(C)ccc1S(=O)(=O)NC(=O)C(c1ccc2c(c1)OCO2)c1cn(C)c2cc(C(C)=O)ccc12` (centres unmarked) [Example 101, 6-Acetyl-3-{1-(1,3-benzodioxol-5-yl)-2-[(2-methoxy-4-methylphenyl)sulfonamido]-2-oxoethyl}-1-methyl-1H-indole] gave an IC50 of less than 500 nM.

`COCCn1cc(C(C(=O)NS(=O)(=O)c2ccc(C)cc2OC)c2ccc3c(c2)OCO3)c2ccc(C(N)=O)cc21` (centres unmarked) [Example 109, 3-{1-(1,3-benzodioxol-5-yl)-2-[(4-methyl-2-methoxyphenyl)sulfonamido]-2-oxoethyl}-1-(2-methoxyethyl)-1H-6-indolecarboxamide] showed a 50% inhibitory concentration (IC50) in data set [1] of less than 500 nM.

Take `CCCOc1ccc2c(c1)[C@@H](c1ccc(OC)cc1OCC(=O)O)[C@H](C(=O)O)[C@H]2c1ccc2c(c1)OCO2` [SB-209670]: the “reduction in neointimal formation relative to control animals” value in data set [2] is reported as 50%.
